Assays:
COVID-19 (SARS-CoV-2) = test: Example 2: INOpulse (pulsed iNO) expanded access series in hospitalized patients with hypoxemia due to COVID-19; format: in vivo; settings: for ratio of oxygen saturation to fraction of inspired oxygen (SpO2/FiO2), median: FiO2 estimated from oxygen flow
COVID-19 = test: Example 1: randomized open-label study of pulsed iNO versus standard of care in COVID-19, initial data; format: in vivo; settings: three COVID-19 patients that completed the regimen
Description: This example discloses a randomized, open-label study to assess the efficacy and safety of pulsed iNO compared to standard of care (SOC) in subjects with COVID-19 who are hospitalized and require supplemental oxygen without assisted ventilation. Up to 500 subjects are randomized to receive either (a) iNO 125 mcg/kg IBW/hr for at least 8 hours and up to 24 hours daily for 3 days to 14 days or until resolution or discharge at the discretion of the Investigator, or (b) standard of care. No placebo arm is used. Subjects are followed through Day 28 to assess their clinical status. The primary objective in this study is to verify the efficacy of iNO in subjects with COVID-19. The secondary objective in this study is to evaluate the safety of iNO in subjects with COVID-19.
Outcomes are assessed using an outcome scale assessed 14 days after randomization.
Prior to receiving treatment with iNO, subjects were screened to confirm eligibility. […] Subjects in the iNO group are treated by means of an INOpulse device using a readily available cannula on site.
At day 0 of the study, subjects testing positive for COVID-19 are evaluated for vital signs, blood chemistry, and a chest x-ray or CT scan, and an overall physical exam is performed. Daily vital signs, oxygen measurements (pulse oximetry), methemoglobin levels, and adverse events are assessed through the entire course of treatment. […]

[1] = test system: severe acute respiratory syndrome-related coronavirus (SARS-CoV); settings: cited from earlier work
[2] = test system: cells infected with SARS-CoV; settings: cited from earlier work
SARS = settings: human, in vivo; cited from earlier work
[3] = one subject (CVD19-029), higher dose 250 mcg/kg IBW/hour (approximately 40 ppm)
[4] = patients that completed iNO treatment and were discharged

[N]=O [iNO, nitric oxide]
Oxygen Saturation (SpO2), Median (COVID-19 (SARS-CoV-2); Discharge): 95%
Oxygen Therapy (L/min), Median (COVID-19 (SARS-CoV-2); Discharge, n=20): 0.0 L/min
8 Point Ordinal Scale, Median (COVID-19 (SARS-CoV-2); Discharge, scale of Table A): 7
Oxygen Saturation (SpO2), Median (COVID-19 (SARS-CoV-2); Post-iNO): 95%
8 Point Ordinal Scale, Median (COVID-19 (SARS-CoV-2); Post-iNO (first day off iNO), scale of Table A): 4
Oxygen Therapy (L/min), Median (COVID-19 (SARS-CoV-2); Post-iNO, n=22): 2.0 L/min
ratio of oxygen saturation to fraction of inspired oxygen (SpO2/FiO2), median (COVID-19 (SARS-CoV-2); baseline (start of iNO)): 229
Oxygen Saturation (SpO2), Median (COVID-19 (SARS-CoV-2); iNO-End): 95%
Oxygen Therapy (L/min), Median (COVID-19 (SARS-CoV-2); iNO-End, n=22): 3.3 L/min
8 Point Ordinal Scale, Median (COVID-19 (SARS-CoV-2); iNO-End, scale of Table A): 4
Oxygen Therapy (L/min), Median (COVID-19 (SARS-CoV-2); iNO-Start (baseline), n=24, iNO 125 mcg/kg IBW/hour): 5.0 L/min
Oxygen Saturation (SpO2), Median (COVID-19 (SARS-CoV-2); iNO-Start (baseline), pulse oximetry): 94%
8 Point Ordinal Scale, Median (COVID-19 (SARS-CoV-2); iNO-Start, scale of Table A (1 death to 8 not hospitalized, no limitations)): 4
patients discharged from the hospital at the time of report (COVID-19 (SARS-CoV-2); of 24 COVID-19 positive patients): 19 patients
deaths (COVID-19 (SARS-CoV-2); of 24 patients, elderly person with severe comorbidities, iNO for less than 24 hours): one
ratio of oxygen saturation to fraction of inspired oxygen (SpO2/FiO2), median (COVID-19 (SARS-CoV-2); on completion of iNO): 286
clinical response (COVID-19 (SARS-CoV-2); [3]): responded well and was discharged home without supplemental oxygen
tolerability (COVID-19 (SARS-CoV-2); [3]): well tolerated
Time to Discharge from hospitalization (median, range) (COVID-19 (SARS-CoV-2); [4]): 10 (6-23) Days
Time to Discharge from start of iNO (median, range) (COVID-19 (SARS-CoV-2); [4]): 6 (3-14) Days
ratio of oxygen saturation to fraction of inspired oxygen (SpO2/FiO2), median (COVID-19 (SARS-CoV-2); period after iNO): 346
need for mechanical ventilation (COVID-19): avoid the need for mechanical ventilation
oxygenation (COVID-19; iNO 125 mcg/kg IBW/hr): improved oxygenation
replication of SARS-CoV [1]: inhibits the replication
cellular survival of cells infected with SARS-CoV [2]: improves cellular survival
arterial oxygenation (SARS): improvements in arterial oxygenation
chest radiography (SARS): reduction in density of lung infiltrates
supplemental oxygen and need for ventilatory support (SARS): reduction in supplemental oxygen and need for ventilatory support
time to hospital discharge (SARS): shorter time to hospital discharge
